Assay results published in US20260372303A1, “5-Fluoro-4-Imino-3-Methyl-1-Tosyl-3, 4-Dihydropyrimidin-2(1H) -One for Fungicide-Resistant Fungus” (priority 2022, published 2026).

Experiments:
Format in all cases: in vivo
[1] = tested on: Zymoseptoria tritici strain Zt 20; test: In planta preventive efficacy on wheat cv. Alixan against Zymoseptoria tritici strain Zt 20; details: % of length of 2nd leaf blade, preventive 24 h
Description: (§1) A series of experiments were conducted to evaluate the efficacy of flumetylsulforim (ADF-16) for treating different strains of Zymoseptoria tritici in comparison with commercially available fungicides. Table 1 describes the Z. tritici strains used in this study and Table 2 describes the fungicides used in this study.
(§2) Winter wheat plants cv. Alixan (Limagrain) at the BBCH 12 growth stage were treated preventively with sterile distilled water (control), ADF-16, penthiopyrad, metconazole or tebuconazole at the rates described in Table 2 with a hand sprayer at 2 bars.
(§3) After treatment, wheat plants were left to dry at room temperature for 1 hour and then placed in a climatic chamber: temperature of 24 °C day/18 °C night-photoperiod of 16 h light/8 h dark and a relative humidity of 65%.
(§4) Untreated or treated whole wheat plants were inoculated 24-hours post-treatment with a calibrated pycnospore suspension of Z. tritici strains Zt StA, Zt 61, Zt 99, Zt 20, Zt 19-52, and Zt 38-02. Three replicates (pots) of 6 wheat plants each were used for each condition tested.
(§5) After inoculation, pots were transferred in a climatic chamber: temperature of 20 °C day/17 °C night—photoperiod of 16 h light/8 h dark and controlled relative humidity.
(§6) Disease assessments were carried out at 15 days post inoculation (dpi), 21 dpi and 28 dpi by measuring the length of the necrosis on the second leaf blade. The intensity of infection was then determined as a percentage of the total length of 2nd leaf blade.
(§7) The fungicide efficacies were determined from the Area Under the Disease Progress Curve (AUDPC) values and expressed as a percentage of the untreated control.
(§8) The AUDPC is a quantitative measure of disease intensity over time. The most commonly used method for estimating the AUDPC, the trapezoidal method, is performed by multiplying the average disease intensity between each pair of adjacent timepoints by the corresponding time interval and this for each time interval. The AUDPC is determined with the following formula by adding all of the trapezoids:
(§9) [formula] • yi=disease severity at the ith observation • ti=time (days) at the ith observation • N=total number of observations

[2] = tested on: Zymoseptoria tritici strain Zt 38-02; test: In planta preventive efficacy on wheat cv. Alixan against Zymoseptoria tritici strain Zt 38-02; details: for Disease Severity Intensity: % of length of 2nd leaf blade, preventive 24 h; for AUDPC: control 1261.4
Description: as §1, §2, §3, §4, §5, §6, §7, §8, §9

[3] = tested on: Zymoseptoria tritici strain Zt 19-52; test: In planta preventive efficacy on wheat cv. Alixan against Zymoseptoria tritici strain Zt 19-52; details: % of length of 2nd leaf blade, preventive 24 h
Description: as §1, §2, §3, §4, §5, §6, §7, §8, §9

[4] = tested on: Zymoseptoria tritici strain Zt 99; test: In planta preventive efficacy on wheat cv. Alixan against Zymoseptoria tritici strain Zt 99; details: for Disease Severity Intensity: % of length of 2nd leaf blade, preventive 24 h; for AUDPC: control 1352.9
Description: as §1, §2, §3, §4, §5, §6, §7, §8, §9

[5] = tested on: Zymoseptoria tritici strain Zt StA; test: In planta preventive efficacy on wheat cv. Alixan against Zymoseptoria tritici strain Zt StA (control strain, sensitive); details: for Disease Severity Intensity: % of length of 2nd leaf blade, preventive 24 h; for AUDPC: control 781.6
Description: as §1, §2, §3, §4, §5, §6, §7, §8, §9

[6] = tested on: Zymoseptoria tritici strain Zt 61; test: In planta preventive efficacy on wheat cv. Alixan against Zymoseptoria tritici strain Zt 61; design: fungicide efficacy: concentration or dose not given beside the values; details: for Disease Severity Intensity: % of length of 2nd leaf blade, preventive 24 h; for AUDPC: control 1194.9
Description: as §1, §2, §3, §4, §5, §6, §7, §8, §9

[7] = 15 dpi, rate N (g a.i./ha): ADF-16 100, penthiopyrad 200, metconazole 90, tebuconazole 250, control also no disease
[8] = 15 dpi, rate N/2.5 (g a.i./ha): ADF-16 40, penthiopyrad 80, metconazole 36, tebuconazole 100, control also no disease
[9] = rate N (g a.i./ha): ADF-16 100, penthiopyrad 200, metconazole 90, tebuconazole 250
[10] = rate N/2.5 (g a.i./ha): ADF-16 40, penthiopyrad 80, metconazole 36, tebuconazole 100

CC1(C)CCC(Cc2ccc(Cl)cc2)C1(O)Cn1cncn1 (centres unmarked) [Metconazole]
Disease Severity Intensity [1, 7]: No disease
Disease Severity Intensity [1, 8]: No disease
Disease Severity Intensity ([1]; 21 dpi, rate N (g a.i./ha): ADF-16 100, penthiopyrad 200, metconazole 90, tebuconazole 250, control 77.2): 1.9 +/− 0.7cd %
Disease Severity Intensity ([1]; 21 dpi, rate N/2.5 (g a.i./ha): ADF-16 40, penthiopyrad 80, metconazole 36, tebuconazole 100, control 77.2): 15.1 +/− 2.8b %
Disease Severity Intensity ([1]; 28 dpi, rate N (g a.i./ha): ADF-16 100, penthiopyrad 200, metconazole 90, tebuconazole 250, control 95.5): 33.0 +/− 3.6d %
Disease Severity Intensity ([1]; 28 dpi, rate N/2.5 (g a.i./ha): ADF-16 40, penthiopyrad 80, metconazole 36, tebuconazole 100, control 95.5): 78.0 +/− 5.0b %
Disease Severity Intensity ([2]; 15 dpi, rate N (g a.i./ha): ADF-16 100, penthiopyrad 200, metconazole 90, tebuconazole 250, control 36.0): 0.0 +/− 0.0b %
Disease Severity Intensity ([2]; 15 dpi, rate N/2.5 (g a.i./ha): ADF-16 40, penthiopyrad 80, metconazole 36, tebuconazole 100, control 36.0): 1.7 +/− 0.9b %
Disease Severity Intensity ([2]; 21 dpi, rate N (g a.i./ha): ADF-16 100, penthiopyrad 200, metconazole 90, tebuconazole 250, control 84.3): 25.6 +/− 3.9d %
Disease Severity Intensity ([2]; 21 dpi, rate N/2.5 (g a.i./ha): ADF-16 40, penthiopyrad 80, metconazole 36, tebuconazole 100, control 84.3): 61.8 +/− 2.5bc %
Disease Severity Intensity ([2]; 28 dpi, rate N (g a.i./ha): ADF-16 100, penthiopyrad 200, metconazole 90, tebuconazole 250, control 95.7): 82.4 +/− 3.4c %
Disease Severity Intensity ([2]; 28 dpi, rate N/2.5 (g a.i./ha): ADF-16 40, penthiopyrad 80, metconazole 36, tebuconazole 100, control 95.7): 92.1 +/− 1.2b %
Efficacy (from AUDPC, percentage of the untreated control) [2, 9]: 64.0%
AUDPC [2, 9]: 454.7 +/− 29.0c
Efficacy (from AUDPC, percentage of the untreated control) [2, 10]: 41.1%
AUDPC [2, 10]: 743.0 +/− 14.9b
Disease Severity Intensity ([3]; 15 dpi, rate N (g a.i./ha): ADF-16 100, penthiopyrad 200, metconazole 90, tebuconazole 250, control 22.0): 0.0 +/− 0.0b %
Disease Severity Intensity ([3]; 15 dpi, rate N/2.5 (g a.i./ha): ADF-16 40, penthiopyrad 80, metconazole 36, tebuconazole 100, control 22.0): 0.0 +/− 0.0b %
Disease Severity Intensity ([3]; 21 dpi, rate N (g a.i./ha): ADF-16 100, penthiopyrad 200, metconazole 90, tebuconazole 250, control 81.7): 0.3 +/− 0.2c %
Disease Severity Intensity ([3]; 21 dpi, rate N/2.5 (g a.i./ha): ADF-16 40, penthiopyrad 80, metconazole 36, tebuconazole 100, control 81.7): 2.1 +/− 0.8b %
Disease Severity Intensity ([3]; 28 dpi, rate N (g a.i./ha): ADF-16 100, penthiopyrad 200, metconazole 90, tebuconazole 250, control 91.0): 12.0 +/− 1.9c %
Disease Severity Intensity ([3]; 28 dpi, rate N/2.5 (g a.i./ha): ADF-16 40, penthiopyrad 80, metconazole 36, tebuconazole 100, control 91.0): 22.4 +/− 2.3b %
Disease Severity Intensity ([4]; 15 dpi, rate N (g a.i./ha): ADF-16 100, penthiopyrad 200, metconazole 90, tebuconazole 250, control 47.9): 0.0 +/− 0.0d %
Disease Severity Intensity ([4]; 15 dpi, rate N/2.5 (g a.i./ha): ADF-16 40, penthiopyrad 80, metconazole 36, tebuconazole 100, control 47.9): 1.3 +/− 1.2d %
Disease Severity Intensity ([4]; 21 dpi, rate N (g a.i./ha): ADF-16 100, penthiopyrad 200, metconazole 90, tebuconazole 250, control 81.0): 18.2 +/− 2.6d %
Disease Severity Intensity ([4]; 21 dpi, rate N/2.5 (g a.i./ha): ADF-16 40, penthiopyrad 80, metconazole 36, tebuconazole 100, control 81.0): 58.7 +/− 2.8c %
Disease Severity Intensity ([4]; 28 dpi, rate N (g a.i./ha): ADF-16 100, penthiopyrad 200, metconazole 90, tebuconazole 250, control 92.2): 86.3 +/− 2.4ab %
Disease Severity Intensity ([4]; 28 dpi, rate N/2.5 (g a.i./ha): ADF-16 40, penthiopyrad 80, metconazole 36, tebuconazole 100, control 92.2): 84.6 +/− 4.3b %
Efficacy (from AUDPC, percentage of the untreated control) [4, 9]: 69.0%
AUDPC [4, 9]: 419.9 +/− 29.6e
Efficacy (from AUDPC, percentage of the untreated control) [4, 10]: 48.9%
AUDPC [4, 10]: 691.1 ± 28.1 days
Disease Severity Intensity [5, 7]: No disease
Disease Severity Intensity [5, 8]: No disease
Disease Severity Intensity ([5]; 21 dpi, rate N (g a.i./ha): ADF-16 100, penthiopyrad 200, metconazole 90, tebuconazole 250, control 36.5): 0.0 +/− 0.0b %
Disease Severity Intensity ([5]; 21 dpi, rate N/2.5 (g a.i./ha): ADF-16 40, penthiopyrad 80, metconazole 36, tebuconazole 100, control 36.5): 0.0 +/− 0.0b %
Disease Severity Intensity ([5]; 28 dpi, rate N (g a.i./ha): ADF-16 100, penthiopyrad 200, metconazole 90, tebuconazole 250, control 77.4): 0.0 +/− 0.0b %
Disease Severity Intensity ([5]; 28 dpi, rate N/2.5 (g a.i./ha): ADF-16 40, penthiopyrad 80, metconazole 36, tebuconazole 100, control 77.4): 0.0 +/− 0.0b %
Efficacy (from AUDPC, percentage of the untreated control) [5, 9]: 100%
AUDPC [5, 9]: 0.0 +/− 0.0b
Efficacy (from AUDPC, percentage of the untreated control) [5, 10]: 100%
AUDPC [5, 10]: 0.0 +/− 0.0b
Disease Severity Intensity [6, 7]: No disease
Disease Severity Intensity [6, 8]: No disease
Disease Severity Intensity ([6]; 21 dpi, rate N/2.5 (g a.i./ha): ADF-16 40, penthiopyrad 80, metconazole 36, tebuconazole 100, control 63.3): 10.1 +/− 1.6c %
Disease Severity Intensity ([6]; 28 dpi, rate N (g a.i./ha): ADF-16 100, penthiopyrad 200, metconazole 90, tebuconazole 250, control 88.1): 35.1 +/− 3.8d %
Disease Severity Intensity ([6]; 28 dpi, rate N/2.5 (g a.i./ha): ADF-16 40, penthiopyrad 80, metconazole 36, tebuconazole 100, control 88.1): 65.6 +/− 4.2bc %
fungicide efficacy ([6]; higher application rates (N)): ≥ 85%
fungicide efficacy ([6]; lower application rates (N/2.5)): ≤ 70%
Efficacy (from AUDPC, percentage of the untreated control) [6, 9]: 85.9%
AUDPC [6, 9]: 168.8 +/− 45.4cd
Efficacy (from AUDPC, percentage of the untreated control) [6, 10]: 68.9%
AUDPC [6, 10]: 371.8 +/− 48.7b
